Consider four molecules from patent publication US20020016299A1, “APOPTOSIS INDUCERS” (priority 1996, published 2002).

*1 amine or outer side, *2 acyl side, *3 side chain or, on linkers, in order; H or OH if unused. Where a SMILES comes first, the peptide text is derived from it. Bridges are numbered along the chain shown (N, C = ends). Roman numbers before positions name the chains, in order. [ ]: non-standard residue; d: D form. Actinocin(9to1) = Cc1c2oc3c(C)ccc(C(=O)[*:1])c3nc-2c(C(=O)[*:2])c(N)c1=O; NMeV = CN[C@H](C(=O)O)C(C)C; Sar = CNCC(=O)O

For this assay, the system named is HL-60 (ATCC CL-240). As to the kind of experiment: Apoptosis inducing activity: microscope observation and living cell count of HL-60 culture. It is filed as cell-based. Conditions: HL-60 cells; for activity of suppressing the growth of cancer cells: method of Example 1-(4). The procedure: Apoptosis inducing activity of the above fraction B and the pure product mentioned in Example 1-(3) was measured as follows. Thus, 0.5 ml of aqueous solution of the fraction B or of said pure product was added to 2.5×10^5 cells/4.5 ml of HL-60 (ATCC CL-240) cultured in an RPMI 1640 medium containing 10% of fetal calf serum and incubated at 37° C. for 48 hours. At the same time, distilled water and an Actinomycin D solution (10 μg/ml) which was known to have an apoptosis inducing activity were added to prepare control samples. Formation of apoptic bodies, contraction of cells and aggregation of nuclei were observed by naked eye under a microscope whereby the living cell numbers were counted. When such phenomena were observed and a reduction in living cell numbers was recognized, it was decided that an apoptosis inducing activity was positive.
Each of the concentrated extracts of Lyophyllum ulmarium was diluted with a 75% or 50% aqueous solution of ethanol. The diluted solution was assayed by an MTT method mentioned in Example 7. […] Thus, it was confirmed that, under the conditions of extracting with a 75% aqueous solution of ethanol and a 50% aqueous solution of ethanol, substances which are active for suppressing the growth of cancer cells were extracted. Further, an apoptosis inducing activity was measured using those concentrated extracts of Lyophyllum ulmarium. Thus, 25 μl of each of the above-mentioned concentrated extracts was used as a sample, ethanol was evaporated therefrom, the residue was added to 2.5×10^5 HL-60 cells/4.5 ml which were incubated in an RPMI 1640 medium containing 10% of fetal calf serum and incubation was conducted at 37° C. for 48 hours. At the same time, control samples were prepared by adding distilled water and an Actinomycin D solution (10 μg/ml) which was known to have an apoptosis inducing activity. Formation of apoptic bodies, contraction of cells and aggregation of nuclei were observed by naked eye under an optical microscope and the numbers of living cells were counted. When such a phenomenon was observed and a reduction in living cell numbers was noted, the sample was judged to have an apoptosis inducing activity.

[1] abbreviates: 37° C., 48 hours, apoptic bodies, contraction of cells, aggregation of nuclei and reduction in living cell numbers.

Turning to `Cc1c2oc3c(C)ccc(C(=O)N[C@@H]4C(=O)N[C@H](C(C)C)C(=O)N5CCC[C@H]5C(=O)N(C)CC(=O)N(C)[C@@H](C(C)C)C(=O)O[C@@H]4C)c3nc-2c(C(=O)N[C@@H]2C(=O)N[C@H](C(C)C)C(=O)N3CCC[C@H]3C(=O)N(C)CC(=O)N(C)[C@@H](C(C)C)C(=O)O[C@@H]2C)c(N)c1=O` [Actinomycin D, reference compound] (I: T[dV]P[Sar][NMeV] / II: T[dV]P[Sar][NMeV]; ester I:1-I:C, II:1-II:C; linker I:N-II:N via Actinocin(9to1)), under “Actinomycin D solution (10 μg/ml) added as control sample”, the apoptosis inducing activity entry is given as “apoptosis inducing activity was confirmed”.

Regarding Monogalactosyl diglyceride, for the setting “37° C., 48 hours”, the “activity of suppressing the growth of cancer cells” value (shortened to “activity … of cancer cells”) is “confirmed”. The apoptosis inducing activity entry under setting [1] is “strong apoptosis inducing action”.

Take digalactosyl diglyceride: where the note is “37° C., 48 hours”, the “activity … of cancer cells” value is listed as “confirmed”. Further, the apoptosis inducing activity result under setting [1] is reported as “strong apoptosis inducing action”.

With monogalactosyl diglyceride, the “activity … of cancer cells” value (37° C., 48 hours) is “confirmed”. Under setting [1], the apoptosis inducing activity entry is “strong apoptosis inducing action”.
